Data on 4 molecules can be found in patent US6884423B1, “Antimicrobial histone H1 compositions, kits, and methods of use thereof” (Symbiotec GmbH, priority 1998, dated 2005).

In data set [1] the test system is various strains of E. coli isolated from urinary tract infections. In words: Exposure time dependence of antibiotic activity, urinary tract infection isolates. Type of data set: cell-based, Escherichia coli. To be noted: after thirty minutes; all strains. On the procedure: Histone H1 suspended in Sorensen buffer was added to aliquots of individual bacterial cultures to achieve a final concentration of either 1.9 micromolar or 3.8 micromolar. No histone H1 was added to individual control culture aliquots. […]

In data set [2] the test system is E. coli strain AB1157. As to the kind of experiment: Thermal stability of histone H1 (antibiotic activity after storage). The class given is cell-based, Escherichia coli. The note with it: for fractional survival of cells: 40 micrograms per milliliter, 37° C., ten minutes. On the procedure: In a first experiment, purified histone H1 was stored at −80° C. for more than thirty-six months.
In a second experiment, aliquots of purified histone H1 were separately stored at −80° C., at 4° C., and at 37° C. for twenty hours. […] The fractional survival of cells incubated with histone H1 stored at −80° C. was about 0.1%. The fractional survival of cells incubated with histone H1 stored at 4° C. was about 1%. The fractional survival of cells incubated with histone H1 stored at 37° C. was about 6%.

Data set [3] relates to non-cancerous eukaryotic cells.
Data set [4] concerns E. coli strain AB1157. In words: Binding of histone H1 to bacteria (activity of medium pre-contacted with cells). Type of data set: cell-based, Escherichia coli. The note with it: forty-five minutes pre-incubation with E. coli cells, decanted medium re-inoculated. The method, then: An aliquot of cells of E. coli strain AB1157 was incubated with histone H1 as described herein in Example 4. After forty-five minutes of incubation, cells were removed by centrifugation and decanting.

For data set [5], the system named is Proteus mirabilis. As to the kind of experiment: Percent reduction in colony formation (spectrum of antibiotic activity). The class given is cell-based. The note with it: Incubation time 10 minutes; [Histone H1] 1.9 micromolar; 37° C. The method, then: (§1) Histone H1 suspended in Sorensen buffer was added to aliquots of individual bacterial cultures to achieve a final concentration of either 1.9 micromolar or 3.8 micromolar. No histone H1 was added to individual control culture aliquots. The aliquots were thereafter incubated at 37° C. for either ten minutes or forty-five minutes, and the aliquots were plated on appropriate solid or semisolid media.

The test system of data set [6] is Bacillus cereus. Described as above. The note with it: 37° C. Type of data set: cell-based. On the procedure: as §1
The subject of data set [7] is Staphylococcus aureus. The data set is described as above. The note with it: 37° C. Type of data set: cell-based. The method, then: as §1
For data set [8], the system named is Pseudomonas aeruginosa. The data set is described as above. The class given is cell-based. To be noted: 37° C. On the procedure:
as §1

The subject of data set [9] is Escherichia coli strain AB1157. The data set is described as above. To be noted: 37° C. The class given is cell-based. On the procedure: as §1
Data set [10] concerns Enterococcus faecalis. The data set is described as above. The class given is cell-based. To be noted: 37° C. On the procedure:
as §1

The test system of data set [11] is Bacillus subtilis. Described as above. The class given is cell-based. To be noted: Incubation time 10 minutes; [Histone H1] 1.9 micromolar; 37° C. The method, then:
as §1

The subject of data set [12] is Bacillus megaterium. The description is as above. Type of data set: cell-based. The note with it: 37° C. The method, then:
as §1

For data set [13], the system named is Serratia marcescens. Described as above. To be noted: Incubation time 10 minutes; [Histone H1] 1.9 micromolar; 37° C. The class given is cell-based. On the procedure: as §1
In data set [14] the test system is Salmonella enteritidis. The description is as above. Type of data set: cell-based. To be noted: Incubation time 10 minutes; [Histone H1] 1.9 micromolar; 37° C. On the procedure: as §1
For data set [15], the system named is E. coli strain AB1157. In words: Development of bacterial resistance to histone H1. The class given is cell-based, Escherichia coli. The note with it: FIG. 6. The method, then: Purified bovine histone H1 is prepared as described herein in Example 1. Cells of E. coli strain AB1157 are incubated in aliquots of Sorensen buffer containing various set concentrations of histone H1. The aliquot having the highest histone H1 concentration in which cells proliferate (as indicated, for example, by turbidity of the buffer) is used to seed cultures having even higher histone H1 concentrations. This process is repeated until cells are isolated which grow at a concentration of histone H1 that is normally toxic to E. coli cells.

In data set [16] the test system is animal cells. To be noted: on the order of; cited from earlier work.
Data set [17] has as its system E. coli strain AB1157. As to the kind of experiment: Fractional survival of histone H1-contacted cells by colony counting. The method, then:
Purified bovine histone H1 was prepared as described herein in Example 1. Cells of E. coli strain AB1157 (obtained from ATCC) were grown in NYET medium (4 grams per liter nutrient broth, 7.5 grams per liter yeast extract, and 4 grams per lither tryptone) at 37° C. E. coli cells in approximately the exponential growth phase were incubated in Sorensen buffer (41 mM Na2HPO4, 25.7 mM KH2PO4) for twenty minutes in the presence of a selected concentration of histone H1. The fractional survival of histone H1-contacted cells, relative to cells which were not contacted with histone H1 was determined by counting colonies using an automated colony counter (3M model 620). About 200 microliters of an H1-containing bacterial suspension was plated into Petri dishes by adding 10 milliliters of 57° C. medium containing 1.5% (w/w) Bacto agar. […]
Purified bovine histone H1 was prepared as described herein in Example 1. Cells of E. coli strain AB1157 were incubated in Sorensen buffer at a selected temperature for a selected period in the presence of a 1.9 micromolar histone H1 The fractional survival of histone H1-contacted cells, relative to cells not contacted with histone H1 was determined as described herein in Example 4. […] Normal human body temperature is about 37° C. […]
Purified bovine histone H1 was prepared as described herein in Example 1. Cells of E. coli strain AB1157 were incubated in Sorensen buffer at a selected temperature for a selected period in the presence of a selected concentration histone H1. In selected assays, the medium also contained between 0 and about 10% (v/v) human or bovine serum. The fractional survival of histone H1-contacted cells, relative to cells not contacted with histone H1 was determined as described herein in Example 4. […]

Data set [18] has as its system E. coli strain AB1157. As to the kind of experiment: Membrane damage by Sytox Green dye and flow cytometer. Type of data set: cell-based, Escherichia coli. The note with it: 0.4, 0.95 and 1.9 μM histone H1, 37° C., various time intervals. On the procedure:
Membrane damage of E. coli cells was determined at various time intervals, using the dye Sytox Green and a flow cytometer as described (Roth et al., 1997, Appl. Env. Microbiol. 63:2421-2431).

In data set [19] the test system is penicillin-resistant E. coli strain derived from strain AB1157. As to the kind of experiment: Bacteriocidal effect upon penicillin-resistant bacteria (fractional survival). The class given is cell-based, Escherichia coli. The note with it: histone H1 in Sorensen buffer, 37° C. From the text: Cells of E. coli strain AB1157 were made penicillin-resistant by culturing them in penicillin-containing growth media over a period of several days. The resulting population was completely resistant to penicillin.

The subject of data set [20] is bacterial cells. As to the kind of experiment: Toxic concentration for bacterial cells. Type of data set: cell-based.
Data set [21] deals with E. coli strain AB1157. As to the kind of experiment: Inhibition of the antibiotic activity of histone H1 by heparin. Type of data set: cell-based, Escherichia coli. The note with it: 4 micrograms per milliliter histone H1, 37° C., ten minutes. The method, then:
In selected assays, the incubation medium also contained a selected concentration of heparin, in the range from 0 to about 250 units per milliliter.

[22] abbreviates: Incubation time 10 minutes, [Histone H1] 1.9 micromolar.
Where [23] appears, read: Incubation time 10 minutes, [Histone H1] 3.8 micromolar.
[24] abbreviates: Incubation time 45 minutes, [Histone H1] 1.9 micromolar.
The mark [25] stands for this setting: Incubation time 45 minutes, [Histone H1] 3.8 micromolar.

Regarding histone H1, in data set [1], the survival result is listed as “less than 3%”. Further, the “fractional survival of cells” value in data set [2] (histone H1 stored at 4° C. for twenty hours) is reported as “about 1%”; in [2] (histone H1 stored at 37° C. for twenty hours), “about 6%”; in [2] (histone H1 stored at −80° C. for twenty hours), “about 0.1%”. Further, the “antibiotic activity after storage” value in data set [2] (stored at −80° C. for more than thirty-six months) is reported as “not significantly decreased”. The toxic concentration result in data set [3] is “more than 200 or 250 micrograms per milliliter”; in [20] (bacterial cells), “less than 80 micrograms per milliliter”. For the same molecule, the binding to bacteria result in data set [4] is “binds specifically to bacteria in a non-reversible manner”. Further, the “Percent Reduction in Colony Formation” value in data set [5] was found to be 0.0%; in data set [6] (setting [22]), 11.8%; in [6] (setting [23]), 50.7%; in data set [6] (setting [24]), 42.5%; in data set [6] (setting [25]), 77.4%; in [7] (setting [22]) it was 0.0%. Also, the “Percent Reduction in Colony Formation” value in [7] (setting [23]) is recorded as 0.0%; in [7] (setting [24]), 0.0%; in data set [7] (setting [25]), 0.0%; in [8] (setting [22]) it was 99.6%; in data set [8] (setting [23]), 100%; in data set [8] (setting [24]), 100%. In addition, the “Percent Reduction in Colony Formation” value in data set [8] (setting [25]) is on record as 100%; in data set [9] (setting [22]), 99.6%; in data set [9] (setting [23]), 99.9%; in data set [9] (setting [24]), 99.7%; in [9] (setting [25]), 100%; in data set [10] (setting [22]), 0.0%. For the same molecule, the “Percent Reduction in Colony Formation” value in data set [10] (setting [23]) is recorded as 0.0%; in [10] (setting [24]), 0.0%; in [10] (setting [25]), 0.0%; in [11], 97.4%; in data set [12] (setting [22]), 93.3%; in data set [12] (setting [23]) it was 91.2%. Further, the “Percent Reduction in Colony Formation” value in data set [12] (setting [24]) is 92.9%; in data set [12] (setting [25]), 99.3%; in data set [13] it was 14.0%; in data set [14], above 99%. Moreover, in [15], the “development of resistance of E. coli cells to the antibiotic activity” value is “can develop resistance”. In addition, in [16], the “concentrations that may induce death of animal cells” value was 10 to 100 µM. For the same molecule, the “lowest H1 concentration at which significant cytotoxicity was observed” value in [17] came out at 0.24 µM. Besides, the “dependence of antibiotic activity on serum” value in [17] (0 to about 10% (v/v) human AB serum or fetal calf serum) is “independent of serum concentrations at concentrations at least as high as 10% (v/v) serum”. Moreover, in data set [17] (1.9 micromolar H1, 37° C.), the “incubation time sufficient to achieve maximal cytotoxic effect” value is “less than ten”. For the same molecule, in [17] (1.9 micromolar histone H1, 4° C., 30° C., 37° C.), the “temperature dependency of bactericidal effect” value is “significantly greater at 37 °C than at either 4 °C or 30 °C”. In addition, in [17] (histone H1 concentration less than 1 micromolar, twenty minutes in Sorensen buffer), the “E. coli cells killed” value is given as “more than 98%”. The “fraction of the cells which exhibited membrane damage” value in [18] is reported as “dependent on the concentration of histone H1”. Besides, in [19], the “killing of penicillin-resistant cells compared with wild type cells” value is on record as “killed penicillin-resistant cells approximately as efficiently as it killed wild type cells”. In [20] (relatively low concentrations, as described herein), the “concentrations that induce death of bacterial cells” value is 0.2 to 4 µM.
As to heparin, in data set [21], the “heparin concentration at which histone H1 exhibited essentially no antibiotic activity” value was “greater than 150 units per milliliter” and the “lowest heparin concentration that reduced the antibiotic activity of histone H1” value stood at 6.2 units per milliliter.
For `NC[C@H]1O[C@H](O[C@H]2[C@H](O)[C@@H](O[C@H]3O[C@H](CO)[C@@H](O)[C@H](N)[C@H]3O)[C@H](N)C[C@@H]2N)[C@H](O)[C@@H](O)[C@@H]1O` [kanamycin, reference compound], the cytotoxicity result in data set [17] (1.9 micromolar, 37° C., ten minutes, Sorensen buffer) was “no measurable cytotoxicity”.

B1: Trypsin: Protease used to digest histone H1; tested alone as control (protein, UniProt P00760 24-246, looked up)
Serine protease 1: IVGGYTCGANTVPYQVSLNSGYHFCGGSLINSQWVVSAAHCYKSGIQVRLGEDNINVVEGNEQFISASKSIVHPSYNSNTLNNDIMLIKLKSAASLNSRVASISLPTSCASAGTQCLISGWGNTKSSGTSYPDVLKCLKAPILSDSSCKSAYPGQITSNMFCAGYLEGGKDSCQGDSGGPVVCSGKLQGIVSWGSGCAQKNKPGVYTKVCNYVSWIKQTIASN
Turning to B1, the “effect on survival of the bacteria” value in data set [17] (trypsin alone) is listed as “had no effect on the survival of the bacteria”.
